By IC50 is commonly meant the concentration at which inhibition is half-maximal.

The record followed here is patent US11267824B2, “Inhibitors of indoleamine 2,3-dioxygenase and/or tryptophan 2,3-dioxygenase” (IDORSIA PHARMACEUTICALS LTD, priority 2017, dated 2022).

Experiment [1] deals with Recombinant full-length human IDO1 (Homo sapiens (Human), UniProt P14902). The experiment can be described thus: IDO1 enzymatic assay (IDO inhibitory activity). Format: biochemical. The settings on record: 2 nM enzyme, 5 μM L-tryptophan, pH6.5, 30 min pre-incubation, NFK quantified by LCMS; mean values if measured multiple times; read-out: hIDO activity (IC50 in nM). The method in brief:
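N-His-tagged enzyme from E. coli at 2 nM in 37.5 mM phosphate pH6.5 with ascorbate, methylene blue, catalase; compounds 10 μM–0.5 nM, 0.6% DMSO, pre-incubated 30 min RT, then 5 μM L-tryptophan for 30 min RT. NFK quantified by LCMS against d5-tryptophan; IC50 from duplicate four-parameter fit, means where repeated.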

Experiment [2] addresses Recombinant human TDO comprising amino acids 19-407 (Homo sapiens (Human), UniProt P48775). Nature of the experiment: TDO2 enzymatic assay (TDO inhibitory activity). Conditions: 15 nM enzyme, 200 μM L-tryptophan, pH7, 30 min pre-incubation, NFK quantified by LCMS, mean values if measured multiple times. It is filed as biochemical. The method in brief: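 His-tagged enzyme (15 nM, E. coli-expressed) in pH 7 phosphate buffer with ascorbate, catalase, BSA, Tween 20, 0.6% DMSO; 30 min RT pre-incubation with compound (10 μM–0.5 nM), then 200 μM L-tryptophan for 30 min RT. N′-formylkynurenine quantified by LCMS against deuterated tryptophan; IC50 by four-parameter fit, duplicates.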

[3] abbreviates: read-out: hTDO activity (IC50 in nM).

Like-named read-outs stand apart in the source and are kept apart here.

Recombinant human TDO comprising amino acids 19-407, sequence (P48775 19-406 limits assumed): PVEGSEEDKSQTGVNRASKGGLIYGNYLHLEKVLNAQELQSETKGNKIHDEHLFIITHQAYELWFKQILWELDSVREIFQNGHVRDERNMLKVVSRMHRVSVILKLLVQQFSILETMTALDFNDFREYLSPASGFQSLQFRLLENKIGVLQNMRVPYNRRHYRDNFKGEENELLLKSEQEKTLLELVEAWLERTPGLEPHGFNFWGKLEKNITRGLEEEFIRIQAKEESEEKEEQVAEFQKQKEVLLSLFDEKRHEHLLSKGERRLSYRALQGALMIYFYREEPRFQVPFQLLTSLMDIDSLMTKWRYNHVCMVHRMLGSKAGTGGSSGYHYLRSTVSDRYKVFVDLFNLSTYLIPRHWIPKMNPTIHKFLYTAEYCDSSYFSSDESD
Recombinant full-length human IDO1, sequence (P14902 whole entry): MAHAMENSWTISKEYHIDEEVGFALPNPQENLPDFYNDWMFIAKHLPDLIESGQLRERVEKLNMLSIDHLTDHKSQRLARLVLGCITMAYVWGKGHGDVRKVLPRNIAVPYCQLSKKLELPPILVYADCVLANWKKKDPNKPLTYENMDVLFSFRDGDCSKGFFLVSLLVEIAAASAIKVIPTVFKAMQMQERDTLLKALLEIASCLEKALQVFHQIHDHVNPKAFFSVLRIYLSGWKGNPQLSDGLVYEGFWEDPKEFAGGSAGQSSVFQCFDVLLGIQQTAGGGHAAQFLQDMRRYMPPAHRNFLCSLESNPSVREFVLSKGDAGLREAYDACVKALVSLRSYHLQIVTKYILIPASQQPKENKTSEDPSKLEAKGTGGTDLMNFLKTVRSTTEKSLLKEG

For the compound `CC(C)c1sc2cncn2c1[C@@H](O)CC1CCCCC1` [Example 4a, (S)-2-Cyclohexyl-1-(2-isopropyl-imidazo[5,1-b]thiazol-3-yl)-ethanol], the IC50 in experiment [1] was 15.5 nM; in experiment [2] (setting [3]), 386 nM.

Take `CC1(CC(O)c2c(C3CC3)sc3cncn23)CCC1` (racemic) [Example 39, rac-1-(2-Cyclopropyl-imidazo[5,1-b]thiazol-3-yl)-2-(1-methyl-cyclobutyl)-ethanol]: the IC50 in experiment [1] came to 41.7 nM; in experiment [2] (setting [3]), 300 nM.

`OC(c1cccs1)c1c(C2CC2)sc2cncn12` (racemic) [Example 171, rac-(2-Cyclopropyl-imidazo[5,1-b]thiazol-3-yl)-thiophen-2-yl-methanol]: the IC50 in experiment [1] amounted to 90.3 nM; in experiment [2] (setting [3]), 1580 nM.

Take `OC(c1c(C2CC2)sc2cncn12)C1CCCC1c1ccccc1` (centres unmarked) [Example 83, (2-Cyclopropyl-imidazo[5,1-b]thiazol-3-yl)-(2-phenyl-cyclopentyl)-methanol]: the IC50 in experiment [1] came out at 296 nM; in experiment [2] (setting [3]), 5200 nM.

Consider `CC1(C(O)c2c(C(F)(F)F)sc3cncn23)CCCC1` (racemic) [Example 137, rac-(1-Methyl-cyclopentyl)-(2-trifluoromethyl-imidazo[5,1-b]thiazol-3-yl)-methanol], for which the IC50 in experiment [1] was 16.3 nM; in experiment [2] (setting [3]), 54.7 nM.

For `CCc1sc2cncn2c1C(O)C1(C)CCCC1` (racemic) [Example 172, rac-(2-Ethyl-imidazo[5,1-b]thiazol-3-yl)-(1-methyl-cyclopentyl)-methanol], the IC50 in experiment [1] was found to be 4.97 nM; in experiment [2] (setting [3]), 28.7 nM.

Regarding `OC(c1c(-c2cccnc2)sc2cncn12)C1CCCCC1` (racemic) [Example 124, rac-Cyclohexyl-(2-pyridin-3-yl-imidazo[5,1-b]thiazol-3-yl)-methanol], the IC50 in experiment [1] came to 342 nM; in experiment [2] (setting [3]), 881 nM.

As for `CC1CCCC1C(O)c1c(C(F)(F)F)sc2cncn12` (centres unmarked) [Example 119, (2-Methyl-cyclopentyl)-(2-trifluoromethyl-imidazo[5,1-b]thiazol-3-yl)-methanol], the values for the concentration for half-maximal inhibition (IC50) in experiment [1] and in experiment [2] (setting [3]) were 191 nM and 187 nM, respectively.

Regarding `OC(c1c([C@@H]2C[C@@H]2F)sc2cncn12)C1CCCCC1` (relative stereo) [Example 186, Cyclohexyl-[2-(cis-2-fluoro-cyclopropyl)-imidazo[5,1-b]thiazol-3-yl]-methanol], the IC50 was determined as 21.8 nM in experiment [1] and 491 nM in experiment [2] (setting [3]).

`OC(c1c(C2CC2)sc2cncn12)[C@H]1C[C@@H]2CC[C@H]1C2` (relative stereo) [Example 20, rac-(1R*,2R*,4S*)-Bicyclo[2.2.1]hept-2-yl-(2-cyclopropyl-imidazo[5,1-b]thiazol-3-yl)-methanol]: the figures for the IC50 in experiment [1] and in experiment [2] (hTDO activity (IC50 in nM)) were 16.1 nM and 190 nM, respectively.

Consider `CC1(CC(O)c2c(C3CC3)sc3cncn23)CCCCC1` (racemic) [Example 23, rac-1-(2-Cyclopropyl-imidazo[5,1-b]thiazol-3-yl)-2-(1-methyl-cyclohexyl)-ethanol], for which the IC50 was determined as 40.5 nM in experiment [1] and 204 nM in experiment [2] (setting [3]).

`OC(Cc1cccc2ccccc12)c1c(C2CC2)sc2cncn12` (racemic) [Example 67, rac-1-(2-Cyclopropyl-imidazo[5,1-b]thiazol-3-yl)-2-naphthalen-1-yl-ethanol]: the IC50 in experiment [1] was 325 nM; in experiment [2] (setting [3]), 3510 nM.

Take `OC(CC1CCC(c2ccccc2)C1)c1c(C2CC2)sc2cncn12` (centres unmarked) [Example 35, 1-(2-Cyclopropyl-imidazo[5,1-b]thiazol-3-yl)-2-(3-phenyl-cyclopentyl)-ethanol]: the IC50 was 114 nM in experiment [1] and 1570 nM in experiment [2] (setting [3]).

Regarding `OC(CC1CCC(C(F)F)CC1)c1c(C2CC2)sc2cncn12` (racemic) [Example 138, rac-1-(2-Cyclopropyl-imidazo[5,1-b]thiazol-3-yl)-2-(4-difluoromethyl-cyclohexyl)-ethanol], the IC50 worked out at 24.3 nM in experiment [1] and 467 nM in experiment [2] (setting [3]).

`CCc1sc2cncn2c1[C@H](O)CC1CCCCC1` [Example 100b, (R)-2-Cyclohexyl-1-(2-ethyl-imidazo[5,1-b]thiazol-3-yl)-ethanol]: the IC50 in experiment [1] worked out at 1190 nM; in experiment [2] (setting [3]), 9950 nM.

For the compound `O[C@H](c1c(C2CC2)sc2cncn12)C1CCCCC1` [Example 1a, (S)-Cyclohexyl(2-cyclopropylimidazo[5,1-b]thiazol-3-yl)methanol], the IC50 in experiment [1] came out at 7.5 nM; in experiment [2] (setting [3]), 115 nM.

As for `O[C@@H](CC1CCCCC1)c1c(C2CCCC2)sc2cncn12` [Example 10a, (S)-2-Cyclohexyl-1-(2-cyclopentylimidazo[5,1-b]thiazol-3-yl)ethan-1-ol], the IC50 was determined as 190 nM in experiment [1] and 164 nM in experiment [2] (setting [3]).

As for `OC(c1c([C@@H]2C[C@H]2F)sc2cncn12)C1CCCCC1` (relative stereo) [Example 187, Cyclohexyl-[2-(trans-2-fluoro-cyclopropyl)-imidazo[5,1-b]thiazol-3-yl]-methanol], the IC50 in experiment [1] was found to be 18.5 nM; in experiment [2] (setting [3]) it was 2260 nM.

`CCCc1sc2cncn2c1C(O)CC1CCCCC1` (racemic) [Example 129, rac-2-Cyclohexyl-1-(2-propyl-imidazo[5,1-b]thiazol-3-yl)-ethanol]: the figures for the 50% inhibitory concentration (IC50) in experiment [1] and in experiment [2] (setting [3]) were 36.8 nM and 595 nM, respectively.

With `CC[C@H](C)c1sc2cncn2c1C(O)C1CCCCC1` (stereo partly drawn) [Example 185, [2-((S)-sec-Butyl)-imidazo[5,1-b]thiazol-3-yl]-cyclohexyl-methanol], the IC50 was determined as 172 nM in experiment [1] and 962 nM in experiment [2] (setting [3]).

In the case of `Cc1sc2cncn2c1C(O)c1ccc(N(C)C)cc1` (racemic) [Example 58, rac-(4-Dimethylamino-phenyl)-(2-methyl-imidazo[5,1-b]thiazol-3-yl)-methanol], the values for the IC50 in experiment [1] and in experiment [2] (setting [3]) were 1430 nM and over 10200 nM, respectively.

`OC(c1c(C2CCCC2)sc2cncn12)C1CCCCC1` (racemic) [Example 9, rac-Cyclohexyl(2-cyclopentylimidazo[5,1-b]thiazol-3-yl)methanol]: the IC50 in experiment [1] is 237 nM; in experiment [2] (setting [3]), 193 nM.

With `O[C@@H](CC1CCCCCC1)c1c(C2CC2)sc2cncn12` [Example 28a, (S)-2-Cycloheptyl-1-(2-cyclopropyl-imidazo[5,1-b]thiazol-3-yl)-ethanol], the IC50 in experiment [1] turned out to be 22.2 nM; in experiment [2] (setting [3]) it was 358 nM.

For the compound `OC(c1c(C2CC(F)(F)C2)sc2cncn12)C1CCCCC1` (racemic) [Example 156, rac-Cyclohexyl-[2-(3,3-difluoro-cyclobutyl)-imidazo[5,1-b]thiazol-3-yl]-methanol], the IC50 in experiment [1] came out at 1070 nM; in experiment [2] (setting [3]), 1780 nM.

For `OC(c1c(Br)sc2cncn12)C1CCCCC1` (racemic) [Example 14, rac-(2-Bromoimidazo[5,1-b]thiazol-3-yl)(cyclohexyl)methanol], the IC50 was 28 nM in experiment [1] and 218 nM in experiment [2] (setting [3]).

Consider `O[C@H](c1c(C2CCCC2)sc2cncn12)C1CCCCC1` [Example 9a, (S)-Cyclohexyl(2-cyclopentylimidazo[5,1-b]thiazol-3-yl)methanol], for which the IC50 in experiment [1] and in experiment [2] (setting [3]) was 131 nM throughout.

As for `Cc1sc2cncn2c1C(O)C1CC(C)(C)C1` (racemic) [Example 109, rac-(3,3-Dimethyl-cyclobutyl)-(2-methyl-imidazo[5,1-b]thiazol-3-yl)-methanol], the IC50 was 13.6 nM in experiment [1] and 190 nM in experiment [2] (setting [3]).

Consider `OC(c1cccc(C(F)(F)F)c1)c1c(C2CC2)sc2cncn12` (racemic) [Example 143, rac-(2-Cyclopropyl-imidazo[5,1-b]thiazol-3-yl)-(3-trifluoromethyl-phenyl)-methanol], for which the half-inhibitory concentration (IC50) turned out to be 587 nM in experiment [1] and 765 nM in experiment [2] (setting [3]).

For the compound `OC(CC1CCC1)c1c(C2CC2)sc2cncn12` (racemic) [Example 40, rac-2-Cyclobutyl-1-(2-cyclopropyl-imidazo[5,1-b]thiazol-3-yl)-ethanol], the IC50 in experiment [1] came out at 44.9 nM; in experiment [2] (setting [3]) it was 697 nM.

As to `CCc1sc2cncn2c1C(O)C1CC(C)(C)C1` (racemic) [Example 180, rac-(3,3-Dimethyl-cyclobutyl)-(2-ethyl-imidazo[5,1-b]thiazol-3-yl)-methanol], the IC50 in experiment [1] came to 6.65 nM; in experiment [2] (setting [3]), 72.9 nM.

On to `OC(CC1CCCCC1)c1c(C(F)(F)F)sc2cncn12` (racemic) [Example 64, rac-2-Cyclohexyl-1-(2-trifluoromethyl-imidazo[5,1-b]thiazol-3-yl)-ethanol], for which the IC50 in experiment [1] turned out to be 69 nM; in experiment [2] (setting [3]) it was 3180 nM.

On to `OC(c1ccc(F)cc1)c1c(C2CC2)sc2cncn12` (racemic) [Example 144, rac-(2-Cyclopropyl-imidazo[5,1-b]thiazol-3-yl)-(4-fluoro-phenyl)-methanol], for which the figures for the IC50 in experiment [1] and in experiment [2] (setting [3]) were 32.8 nM and 475 nM, respectively.

On to `CC(C)c1sc2cncn2c1[C@@H](O)C1CCCCC1` [Example 3a, (S)-Cyclohexyl-(2-isopropyl-imidazo[5,1-b]thiazol-3-yl)-methanol], for which the values for the IC50 in experiment [1] and in experiment [2] (setting [3]) were 11.7 nM and 603 nM, respectively.

As to `Cn1cc(-c2sc3cncn3c2C(O)C2CCCCC2)cn1` (racemic) [Example 125, rac-Cyclohexyl-[2-(1-methyl-1H-pyrazol-4-yl)-imidazo[5,1-b]thiazol-3-yl]-methanol], the values for the IC50 in experiment [1] and in experiment [2] (setting [3]) were 209 nM and over 10200 nM, respectively.
